# In ChEMBL document CHEMBL4364349, “In vitro screening for compounds from Hypericum longistylum with anti-pulmonary fibrosis activity” (Bioorg Med Chem Lett, 2019):
# Legend:
# Assay type in all cases: cell-based
# [1] = Cytotoxicity against mouse Mlg cells assessed as effect on cell viability up to 80 uM after 24 to 48 hrs by MTT assay
# [2] = target: Transforming growth factor beta-1 proprotein/Mothers against decapentaplegic homolog 3 (Mus musculus) (UniProt P04202+Q8BUN5); assay: Inhibition of TGF beta1/Smad3 signaling in mouse NIH/3T3 cells harboring CAGA promoter at 10 uM incubated for 18 hrs in presence of TGF-beta1 by luciferase reporter gene assay relative to control
# [3] = target: Transforming growth factor beta-1 proprotein/Mothers against decapentaplegic homolog 3 (Mus musculus, UniProt P04202+Q8BUN5); assay: Inhibition of TGF beta1/Smad3 signaling in mouse NIH/3T3 cells harboring CAGA promoter incubated for 18 hrs in presence of TGF-beta1 by luciferase reporter gene assay
# Transforming growth factor beta-1 proprotein/Mothers against decapentaplegic homolog 3, sequence (P04202 279-390 limits assumed): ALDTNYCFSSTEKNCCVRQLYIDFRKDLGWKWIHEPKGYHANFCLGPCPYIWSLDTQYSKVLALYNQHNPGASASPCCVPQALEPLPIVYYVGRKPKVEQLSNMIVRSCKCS
# Transforming growth factor beta-1 proprotein/Mothers against decapentaplegic homolog 3, sequence (Q8BUN5 2-425 limits assumed): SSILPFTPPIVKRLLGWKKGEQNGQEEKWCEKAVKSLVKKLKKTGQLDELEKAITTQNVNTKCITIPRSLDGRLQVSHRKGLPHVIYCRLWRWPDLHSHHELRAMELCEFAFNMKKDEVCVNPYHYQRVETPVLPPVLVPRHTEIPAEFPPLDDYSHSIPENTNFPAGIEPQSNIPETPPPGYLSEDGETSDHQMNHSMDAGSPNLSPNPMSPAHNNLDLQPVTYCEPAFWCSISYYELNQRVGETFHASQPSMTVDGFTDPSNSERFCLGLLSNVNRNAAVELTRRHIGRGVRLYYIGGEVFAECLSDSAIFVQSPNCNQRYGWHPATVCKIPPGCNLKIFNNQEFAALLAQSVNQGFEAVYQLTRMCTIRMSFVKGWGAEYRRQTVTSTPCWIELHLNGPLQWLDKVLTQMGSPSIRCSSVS
# Transforming growth factor beta-1 proprotein/Mothers against decapentaplegic homolog 3 (Mus musculus), sequence (P04202 279-390 limits assumed): as the sequence (P04202 279-390 limits assumed) above
# Transforming growth factor beta-1 proprotein/Mothers against decapentaplegic homolog 3 (Mus musculus), sequence (Q8BUN5 2-425 partner limits assumed): as the sequence (Q8BUN5 2-425 limits assumed) above
inhibition [2],IC50 [3],SMILES,Activity [1]
–,–,CC(C)[C@@H]1CC[C@@]2(C)[C@H](O)CCC(C=O)=C[C@H]12,Non-Toxic
–,–,CC(C)[C@@H]1CC[C@@]2(C)C(=O)CCC(C=O)=C[C@@H]12,Non-Toxic
67.9%,3670 nM,CC1(C)C[C@H]2[C@H]1CC[C@@]1(C)C[C@]2(O)CC[C@@H]1O,Non-Toxic
–,–,C=C1CC[C@@H](O)[C@]2(C)CC[C@H](C(C)C)[C@@H](O)[C@H]12,Non-Toxic
–,–,CC(=O)[C@@H]1CC[C@H]2[C@H]1[C@@H](C(C)C)CC[C@]2(C)O,Non-Toxic
–,–,CC(C)[C@H]1CC[C@@]2(C)[C@@H]1[C@@H]1O[C@]1(CO)CC[C@@H]2O [SANICULAMOID B],Non-Toxic
–,–,C=C[C@](C)(O)CC[C@H]1C(=C)C[C@H](O)[C@H]2C(C)(C)CCC[C@]12C,Non-Toxic
–,–,C=C1CCC(=O)[C@]2(C)CC[C@@H](C(C)C)[C@@H]2C1O (stereo not given in full),Non-Toxic
–,1430 nM,Cc1ccc(=O)n(-c2ccccc2)c1 [PIRFENIDONE],–
–,–,C=C1CC[C@@H](O)[C@]2(C)CC[C@@H](C(C)C)[C@H](O)[C@@H]12,Non-Toxic
–,–,CC(C)[C@@H]1CC[C@@]2(C)[C@H](O)CCC(CO)=C[C@@H]12,Non-Toxic
93.1%,380 nM,COc1ccc(C2CC(=O)c3c(O)cc(O)c(C)c3O2)cc1 (stereo not given),Non-Toxic
–,–,CO[C@@]12CC[C@@H](O)[C@@](C)(CC[C@@H]3[C@@H]1CC3(C)C)C2,Non-Toxic
–,–,CC(C)[C@@H]1CC[C@@]2(C)[C@H](O)CC[C@@]3(O)CO[C@@H]1[C@@H]32,Non-Toxic
–,70.5 nM,Cc1cccc(-c2[nH]c(C(C)(C)C)nc2-c2ccc3nccnc3c2)n1,Toxic
